The first assay relates to UM-UC-9 engineered cells. Description: Cell proliferation / short-term viability assay, CellTiter-Glo 144 h. The assay is classed as cell-based, human. The note with it: Homo sapiens, UM-UC-9, 144 h, read-out: CTGlo 144 h UMUC9.5, G150. The method, then:
Cell Seeding for Proliferation Assay
UM-UC-9 engineered cells were cultured in Dulbecco's Modified Eagle Medium (DMEM) supplemented with 10% FBS, 25 mM glucose (high glucose), 4.0 mM L-glutamine, 2.0 mM GlutaMAX™, 1.0 mM pyruvate, 1.0% non-essential amino acids (NEAA) in a 95% humidified incubator at 37° C. with 5% CO2. Cell banks of UM-UC-9 engineered assay-ready cells (ARCs) were prepared from a very active growth stage. Vials of ARCs containing approximately 5×10^6 cells per vial were stored in liquid nitrogen vapor phase cryostorage until use.
For making assay plates, ARCs were recovered from cryostorage, strained in a […] cell strainer, verified for cell viability >90% and counted using a cell counter (Cellometer Auto 1000, Nexelom). Each cell line was seeded into 384-well plates (50 μl/well) using DMEM medium at a density previously determined to be in log growth phase 7 days post-seeding (500 cells/well) using a bulk reagent dispenser (Multidrop™ Combi, Thermo Scientific) with a large-bore plastic-tip cassette pre-sanitized with 70% ethanol. One plate of cells was designated as the pretreatment time-zero (T0) control. Freshly seeded plates were allowed to sit lidded for 30 minutes within a biosafety cabinet for cells to settle distributed within the plate wells uniformly and then placed into an automated incubator (STX110, Liconic) at 37° C., 5% CO2, and 95% relative humidity.
Preparation of Test Compound in Assay-Ready Plate
Compounds were stored in a low-temperature sample archive as 10 mM dimethyl sulfoxide (DMSO) solutions at −20° C. under reduced humidity (−45° C. dew point) and protected from light. All samples in the automated archive are stored in 2D barcoded polypropylene tubes, tracked through a laboratory information management system (LIMS), and have been verified for identity and purity by NMR (Chemistry, H3 Biomedicine) and by LCMS (Analytical Chemistry, H3 Biomedicine) at the time of sample registration. Identity by mass matching and purity are again verified at the time of sample request fulfillment by redundant LCMS methods (acidic and basic separation protocols; Analytical Chemistry, H3 Biomedicine). Samples retrieved from low-temperature archive storage were solubilized by heated sonication (Bransonic® Ultrasonic Bath, Branson), transferred (Microlab Starlet, Hamilton) and serially-diluted (Viaflo Assist, Integra) by low-volume liquid handlers, and tracked in LIMS by automation log files to create a ID barcoded master dose-response plate (MDR) to serve as a standard source for all assay-ready plates (ARP) used within an experiment. ARPs prepared by acoustic transfer (ATS-100, EDC) of nL volumes from the MDR source were heat-sealed (PlateLoc, Agilent) and stored at −20° C. prior to use (<7 days from production). Tracking of liquid transfers via acoustic dispenser log files were used to update the LIMS system for all ARP plate maps.
Measurement of Pretreatment Control Cells and Sample Anti-Proliferative Effects on Treated Cells
On day 0 (pretreatment cells) or day 7 (treated cells), a cell proliferation assay was performed using an automated robotic assay platform (ACell, High-Res Biosolutions). Cell ARP's were removed from incubation, their plate lid discarded, and using a bulk reagent dispenser (Multidrop™ Combi, Thermo Scientific with a small-bore metal-tip cassette) 25 μL (1/2 volume) of Cell Titer-Glo® 2.0 Cell Viability Assay reagent (Promega) was added to wells of columns 1-23 (column 24 will be used as plate background or positive control). Cell ARP's were incubated at room temperature in an automation hotel position for a total of 1.0 minute while the next plate was delivered to the bulk reagent dispenser and then lid-free cell ARP's were returned to incubate at 37° C. for 2.5 hours. […]
A general note: Cellular ATP, detected with luciferase, serves as a proxy for viable cell number.
Take `COc1cc(-c2[nH]nc(C(=O)N3CCC(C(=O)NC4CCC(C)CC4)CC3)c2F)ccn1` (mixture of isomers) [Example 102]: the IC50 amounted to 0.643 µM.

For `COc1cc(-c2cc(C(=O)N3CCC(C(=O)NC4CCC(C)CC4)CC3)n[nH]2)ccn1` (mixture of isomers) [Example 105, 1-(5-(2-methoxypyridin-4-yl)-1H-pyrazole-3-carbonyl)-N-(4-methylcyclohexyl)piperidine-4-carboxamide], the IC50 came out at 1.02 µM.

For `COc1cc(-c2cc(C(=O)N3[C@@H]4CC[C@H]3C[C@H](C(=O)NC3CCC(C#N)(C(F)(F)F)CC3)C4)n[nH]2)c(F)cn1` (stereo partly drawn) [Example 438, (1R,3s,5S)—N-(4-cyano-4-(trifluoromethyl)cyclohexyl)-8-(5-(5-fluoro-2-methoxypyridin-4-yl)-1H-pyrazole-3-carbonyl)-8-azabicyclo[3.2.1]octane-3-carboxamide], the IC50 came out at 1.15 µM.

On to `COc1cc(-c2cc(C(=O)N3CC[C@H](C(=O)NCc4nc(C)cnc4Cl)CC34CC4)n[nH]2)c(F)cn1` [Example 451, (S)—N-((3-chloro-6-methylpyrazin-2-yl)methyl)-4-(5-(5-fluoro-2-methoxypyridin-4-yl)-1H-pyrazole-3-carbonyl)-4-azaspiro[2.5]octane-7-carboxamide], for which the IC50 was 0.0096 µM.

Regarding `COc1cc(-c2cc(C(=O)N3CC[C@H](C(=O)NCc4ncc(C#N)cn4)CC34CC4)n[nH]2)c(F)cn1` [Example 456, (S)—N-((5-cyanopyrimidin-2-yl)methyl)-4-(5-(5-fluoro-2-methoxypyridin-4-yl)-1H-pyrazole-3-carbonyl)-4-azaspiro[2.5]octane-7-carboxamide], the IC50 worked out at 0.312 µM.

On to `COc1cnc(CNC(=O)[C@H]2CCN(C(=O)c3cc(-c4cc(OC)ncc4F)[nH]n3)C3(CC3)C2)c(C(F)(F)F)c1` [Example 527, (S)-4-(5-(5-fluoro-2-methoxypyridin-4-yl)-1H-pyrazole-3-carbonyl)-N-((5-methoxy-3-(trifluoromethyl)pyridin-2-yl)methyl)-4-azaspiro[2.5]octane-7-carboxamide], for which the IC50 is 0.005 µM.

Still in this assay, the particulars now being: listed as 101a, read-out: CTGlo 144 h UMUC9.5, G150.
In the case of `COc1cc(-c2cc(C(=O)N3CCC(C(=O)NC4CCC(C)CC4)CC3)n[nH]2)c(Cl)cn1` (single isomer, unassigned) [Example 101-A], the IC50 was over 10 µM.

Still in this assay, the particulars now being: read-out: CTGlo 144 h UMUC9.5, G150.
As to `COc1cc(-c2cc(C(=O)N3CCC(C(=O)NC4CCC(C)CC4)CC3)n[nH]2)c(Cl)cn1` (mixture of isomers) [Example 101, 1-(5-(5-chloro-2-methoxypyridin-4-yl)-1H-pyrazole-3-carbonyl)-N-((1s,4s)-4-methylcyclohexyl)piperidine-4-carboxamide and 1-(5-(5-chloro-2-methoxypyridin-4-yl)-1H-pyrazole-3-carbonyl)-N-((1r,4r)-4-methylcyclohexyl)piperidine-4-carboxamide], the IC50 came to 0.305 µM.

Regarding `COc1cc(-c2cc(C(=O)N3CCC(C(=O)NC4CCC(C(F)(F)F)CC4)CC3)n[nH]2)c(Cl)cn1` (mixture of isomers) [Example 118, 1-[5-(5-chloro-2-methoxypyridin-4-yl)-1H-pyrazole-3-carbonyl]-N-[(1s,4s)-4-(trifluoromethyl)cyclohexyl]piperidine-4-carboxamide and 1-[5-(5-chloro-2-methoxypyridin-4-yl)-1H-pyrazole-3-carbonyl]-N-[(1r,4r)-4-(trifluoromethyl)cyclohexyl]piperidine-4-carboxamide], the IC50 was determined as 0.121 µM.

Take `COc1cc(-c2cc(C(=O)N3CCC(C(=O)NC(C)c4cccc(Cl)c4)CC3)n[nH]2)c(Cl)cn1` (racemic) [Example 115, (R)-1-[5-(5-chloro-2-methoxypyridin-4-yl)-1H-pyrazole-3-carbonyl]-N-[1-(3-chlorophenyl)ethyl]piperidine-4-carboxamide and (S)-1-[5-(5-chloro-2-methoxypyridin-4-yl)-1H-pyrazole-3-carbonyl]-N-[1-(3-chlorophenyl)ethyl]piperidine-4-carboxamide]: the IC50 came out at 0.428 µM.

The target of a further assay is T1, His6-TEV-PPARγ-(234-505) (Homo sapiens, UniProt P37231).
T1 construct: The His6-TEV-PPARγ-(234-505) protein for assay was expressed and purified; TEV cleavage site (N); made in house
T1 sequence (P37231 234-505): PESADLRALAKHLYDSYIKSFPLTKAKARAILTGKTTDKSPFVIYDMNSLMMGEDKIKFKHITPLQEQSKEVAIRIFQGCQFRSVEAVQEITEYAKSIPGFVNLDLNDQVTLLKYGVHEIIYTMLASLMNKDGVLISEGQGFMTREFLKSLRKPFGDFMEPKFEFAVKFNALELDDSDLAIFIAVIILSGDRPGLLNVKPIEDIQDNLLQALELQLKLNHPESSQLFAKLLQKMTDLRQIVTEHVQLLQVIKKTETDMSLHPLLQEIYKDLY
The assay is described as follows: TR-FRET Assay to Measure Co-R Peptide Recruitment to PPARγ. It counts as biochemical. The note with it: Co-R peptide (SMRT-ID2) recruitment; top final concentration 20 μM; read-out: TR-FRET i-Ag; AC50. The method, boiled down: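 His-tagged PPARγ (or controls) was preincubated with compound for 20 minutes at room temperature, then 5 nM anti-His terbium antibody and 200 nM FITC-labeled SMRT-ID2 corepressor peptide (final) were added for a further hour. TR-FRET signal was normalized to percent response using 500 nM T0070907 and DMSO controls.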
On the technique in general: Time-resolved FRET reads energy transfer from a long-lived donor to a nearby acceptor.
With `COc1cc(-c2cc(C(=O)N3CCC(C(=O)NC4CCC(C)CC4)CC3)n[nH]2)c(Cl)cn1` (mixture of isomers) [Example 101, 1-(5-(5-chloro-2-methoxypyridin-4-yl)-1H-pyrazole-3-carbonyl)-N-((1s,4s)-4-methylcyclohexyl)piperidine-4-carboxamide and 1-(5-(5-chloro-2-methoxypyridin-4-yl)-1H-pyrazole-3-carbonyl)-N-((1r,4r)-4-methylcyclohexyl)piperidine-4-carboxamide], the AC50 is 0.0294 µM.

Regarding `COc1cc(-c2[nH]nc(C(=O)N3CCC(C(=O)NC4CCC(C)CC4)CC3)c2F)ccn1` (mixture of isomers) [Example 102], the AC50 amounted to 0.321 µM.

On to `COc1cc(-c2cc(C(=O)N3CCC(C(=O)NC4CCC(C)CC4)CC3)n[nH]2)ccn1` (mixture of isomers) [Example 105, 1-(5-(2-methoxypyridin-4-yl)-1H-pyrazole-3-carbonyl)-N-(4-methylcyclohexyl)piperidine-4-carboxamide], for which the AC50 stood at 0.537 µM.

Still in this assay, the particulars now being: Co-R peptide recruitment to PPARγ; read-out: TR-FRET AC50.
As for `O=C(NC1CC1)C1CCN(C(=O)c2cc(-c3ccncc3)[nH]n2)CC1` [N-cyclopropyl-1-[5-(pyridin-4-yl)-1H-pyrazole-3-carbonyl]piperidine-4-carboxamide], the AC50 is over 1 µM.

Consider `CCNC(=O)C1CCN(C(=O)c2cc(-c3ccncc3)[nH]n2)CC1` [N-ethyl-1-[5-(pyridin-4-yl)-1H-pyrazole-3-carbonyl]piperidine-4-carboxamide], for which the AC50 was over 1 µM.

`CNC(=O)CN1CCN(C(=O)C2CCN(C(=O)c3cc(-c4ccncc4)[nH]n3)CC2)CC1` [N-methyl-2-(4-{1-[5-(pyridin-4-yl)-1H-pyrazole-3-carbonyl]piperidine-4-carbonyl}piperazin-1-yl)acetamide]: the AC50 is over 1 µM.

For the compound `CN1CCC(N(C)C(=O)C2CCN(C(=O)c3cc(-c4ccncc4)[nH]n3)CC2)CC1` [N-methyl-N-(1-methylpiperidin-4-yl)-1-[5-(pyridin-4-yl)-1H-pyrazole-3-carbonyl]piperidine-4-carboxamide], the AC50 is over 1 µM.

Regarding `CC(C)CN(C)C(=O)C1CCN(C(=O)c2cc(-c3ccncc3)[nH]n2)CC1` [N-methyl-N-(2-methylpropyl)-1-[5-(pyridin-4-yl)-1H-pyrazole-3-carbonyl]piperidine-4-carboxamide], the AC50 is over 1 µM.

In the case of `CCCN(C)C(=O)C1CCN(C(=O)c2cc(-c3ccncc3)[nH]n2)CC1` [N-methyl-N-propyl-1-[5-(pyridin-4-yl)-1H-pyrazole-3-carbonyl]piperidine-4-carboxamide], the AC50 is over 1 µM.

With `O=C(Nc1ccccc1)C1CCN(C(=O)c2cc(-c3ccncc3)[nH]n2)CC1` [N-phenyl-1-[5-(pyridin-4-yl)-1H-pyrazole-3-carbonyl]piperidine-4-carboxamide], the AC50 was over 1 µM.

For the compound `CC(C)(C)Oc1ccc(CNC(=O)C2CCN(C(=O)c3cc(-c4ccncc4)[nH]n3)CC2)cc1` [N-{[4-(tert-butoxy)phenyl]methyl}-1-[5-(pyridin-4-yl)-1H-pyrazole-3-carbonyl]piperidine-4-carboxamide], the AC50 was over 1 µM.

With `COc1cc(-c2cc(C(=O)N3CCC(C(=O)NC45CC(C4)C5)CC3)n[nH]2)c(Cl)cn1` [N-{bicyclo[1.1.1]pentan-1-yl}-1-[5-(5-chloro-2-methoxypyridin-4-yl)-1H-pyrazole-3-carbonyl]piperidine-4-carboxamide], the AC50 was over 1 µM.

In the case of `O=C(c1cc(-c2ccncc2)[nH]n1)N1CCC(C(=O)N2CCC[C@H]2CO)CC1` [[(2S)-1-{1-[5-(pyridin-4-yl)-1H-pyrazole-3-carbonyl]piperidine-4-carbonyl}pyrrolidin-2-yl]methanol], the AC50 is over 1 µM.

These data come from US12606541B2, “PPARg modulators and methods of use” (Eisai R&D Management Co., Ltd., priority 2020, dated 2026).
